pIC50, pKi: −log10 of the molar value.

Sequence of 5-hydroxytryptamine receptor 1D (P28221 whole entry): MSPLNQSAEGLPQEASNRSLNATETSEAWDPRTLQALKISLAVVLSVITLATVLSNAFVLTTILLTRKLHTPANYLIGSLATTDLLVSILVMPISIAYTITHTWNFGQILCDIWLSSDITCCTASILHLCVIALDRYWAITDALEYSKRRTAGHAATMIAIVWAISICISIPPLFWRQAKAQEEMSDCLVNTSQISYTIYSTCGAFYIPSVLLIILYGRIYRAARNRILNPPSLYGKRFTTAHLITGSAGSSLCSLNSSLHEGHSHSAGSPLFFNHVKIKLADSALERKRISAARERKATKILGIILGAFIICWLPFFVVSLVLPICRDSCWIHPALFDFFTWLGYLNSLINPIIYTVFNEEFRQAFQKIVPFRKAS
Sequence of 5-hydroxytryptamine receptor 1E (P28566 whole entry): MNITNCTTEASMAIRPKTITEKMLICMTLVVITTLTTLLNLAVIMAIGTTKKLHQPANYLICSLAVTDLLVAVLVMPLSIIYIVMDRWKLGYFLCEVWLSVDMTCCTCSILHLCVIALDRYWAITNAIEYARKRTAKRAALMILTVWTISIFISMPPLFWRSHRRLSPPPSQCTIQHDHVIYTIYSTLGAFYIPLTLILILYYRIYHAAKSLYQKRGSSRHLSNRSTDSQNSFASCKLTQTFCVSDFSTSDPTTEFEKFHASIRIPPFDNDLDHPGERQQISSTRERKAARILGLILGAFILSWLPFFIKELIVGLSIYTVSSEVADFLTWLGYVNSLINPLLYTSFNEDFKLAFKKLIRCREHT
Sequence of 5-hydroxytryptamine receptor 5A (P47898 whole entry): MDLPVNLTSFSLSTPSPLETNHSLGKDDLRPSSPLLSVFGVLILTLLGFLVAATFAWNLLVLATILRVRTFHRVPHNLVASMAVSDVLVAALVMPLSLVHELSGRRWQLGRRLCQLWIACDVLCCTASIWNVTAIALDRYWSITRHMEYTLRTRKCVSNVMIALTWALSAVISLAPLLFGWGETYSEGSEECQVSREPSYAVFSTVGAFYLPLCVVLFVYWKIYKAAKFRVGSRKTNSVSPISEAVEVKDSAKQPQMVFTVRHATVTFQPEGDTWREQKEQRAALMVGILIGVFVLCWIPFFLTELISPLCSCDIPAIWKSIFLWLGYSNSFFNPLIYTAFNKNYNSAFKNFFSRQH

One assay has as its target 5-hydroxytryptamine receptor 1E (Homo sapiens, UniProt P28566). Briefly: Displacement of [3H]5-HT from human 5-HT1E receptor expressed in HEK cells after 90 mins by microbeta scintillation counting analysis. It counts as cell-based.
For `C[C@@H]1SC(c2cc3ccccc3cc2O)=N[C@H]1CO` (relative stereo), the pKi (commonly −log10 of the Ki, conventionally taken in molar units) is < 5.00.

As to `C[C@@H]1SC(c2ccco2)=N[C@H]1CO` (relative stereo), the pKi was < 5.00.

Consider `CNc1ccccc1C1=N[C@@H](CO)[C@H](C)S1` (relative stereo), for which the pKi was < 5.00.

As for `CCCCCCCCOc1ccc(C2=N[C@@H](CO)[C@H](C)S2)cc1` (relative stereo), the pKi was < 5.00.

`C[C@@H]1SC(c2ccsc2)=N[C@H]1CO` (relative stereo): the pKi is < 5.00.

A further assay deals with 5-hydroxytryptamine receptor 6 (Homo sapiens, UniProt P50406). Briefly: Displacement of [3H]-LSD from human 5-HT6 receptor expressed in HEK cells after 90 mins by microbeta scintillation counting analysis. The assay is classed as cell-based. (In general: Loss of bound radioactivity is the signal in a displacement assay; it reports binding, not function.)
Sequence of 5-hydroxytryptamine receptor 6 (P50406 whole entry): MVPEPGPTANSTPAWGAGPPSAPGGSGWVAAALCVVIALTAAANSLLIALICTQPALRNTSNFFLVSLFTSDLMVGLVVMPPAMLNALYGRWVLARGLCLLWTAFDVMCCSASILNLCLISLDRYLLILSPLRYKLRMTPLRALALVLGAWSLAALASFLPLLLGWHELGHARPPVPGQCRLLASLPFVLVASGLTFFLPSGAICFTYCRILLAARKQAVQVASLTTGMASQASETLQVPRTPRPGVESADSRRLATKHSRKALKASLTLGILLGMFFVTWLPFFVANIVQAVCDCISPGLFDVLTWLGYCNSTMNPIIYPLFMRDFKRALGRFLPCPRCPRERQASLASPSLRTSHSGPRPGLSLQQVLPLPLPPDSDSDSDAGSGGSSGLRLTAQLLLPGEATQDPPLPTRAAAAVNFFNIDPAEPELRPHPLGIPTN
For the compound `C[C@@H]1SC(c2cc3ccccc3cc2O)=N[C@H]1CO` (relative stereo), the pKi was < 5.00.

Consider `C[C@@H]1SC(c2ccco2)=N[C@H]1CO` (relative stereo), for which the pKi is < 5.00.

Consider `CNc1ccccc1C1=N[C@@H](CO)[C@H](C)S1` (relative stereo), for which the pKi was < 5.00.

In the case of `CCCCCCCCOc1ccc(C2=N[C@@H](CO)[C@H](C)S2)cc1` (relative stereo), the pKi is < 5.00.

Turning to `C[C@@H]1SC(c2ccsc2)=N[C@H]1CO` (relative stereo), the pKi was < 5.00.

For another assay, the target named is T1, 5-hydroxytryptamine receptor 3A (Homo sapiens, UniProt P46098).
T1 sequence (P46098 whole entry): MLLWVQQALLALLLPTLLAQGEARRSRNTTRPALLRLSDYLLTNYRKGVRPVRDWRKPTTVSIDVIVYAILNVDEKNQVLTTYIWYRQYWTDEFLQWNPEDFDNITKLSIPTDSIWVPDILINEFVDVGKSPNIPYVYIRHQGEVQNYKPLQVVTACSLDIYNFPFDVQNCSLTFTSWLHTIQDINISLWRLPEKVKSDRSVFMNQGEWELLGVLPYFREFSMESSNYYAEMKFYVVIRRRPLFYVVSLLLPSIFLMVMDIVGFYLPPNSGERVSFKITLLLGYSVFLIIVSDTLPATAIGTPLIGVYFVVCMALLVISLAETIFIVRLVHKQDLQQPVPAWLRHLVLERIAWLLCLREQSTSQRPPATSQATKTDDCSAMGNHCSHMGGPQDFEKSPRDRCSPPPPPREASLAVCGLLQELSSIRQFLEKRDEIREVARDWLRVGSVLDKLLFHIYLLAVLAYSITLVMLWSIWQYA
The assay can be described thus: Displacement of [3H]-GR65630 from human 5-HT3 receptor expressed in HEKT cells after 90 mins by microbeta scintillation counting analysis. It counts as cell-based.
In turn, `C[C@@H]1SC(c2cc3ccccc3cc2O)=N[C@H]1CO` (relative stereo) had a negative-log Ki (pKi) of 5.74.

Take `C[C@@H]1SC(c2ccco2)=N[C@H]1CO` (relative stereo): the pKi was < 5.00.

As to `CNc1ccccc1C1=N[C@@H](CO)[C@H](C)S1` (relative stereo), the pKi was 5.44.

For `CCCCCCCCOc1ccc(C2=N[C@@H](CO)[C@H](C)S2)cc1` (relative stereo), the pKi was < 5.00.

With `C[C@@H]1SC(c2ccsc2)=N[C@H]1CO` (relative stereo), the pKi was 5.17.

In a further assay the target is 5-hydroxytryptamine receptor 1B (Homo sapiens, UniProt P28222). Briefly: Displacement of [3H]5-CT from human 5-HT1B receptor expressed in HEK cells after 90 mins by microbeta scintillation counting analysis. It counts as cell-based.
Sequence of 5-hydroxytryptamine receptor 1B (P28222 whole entry): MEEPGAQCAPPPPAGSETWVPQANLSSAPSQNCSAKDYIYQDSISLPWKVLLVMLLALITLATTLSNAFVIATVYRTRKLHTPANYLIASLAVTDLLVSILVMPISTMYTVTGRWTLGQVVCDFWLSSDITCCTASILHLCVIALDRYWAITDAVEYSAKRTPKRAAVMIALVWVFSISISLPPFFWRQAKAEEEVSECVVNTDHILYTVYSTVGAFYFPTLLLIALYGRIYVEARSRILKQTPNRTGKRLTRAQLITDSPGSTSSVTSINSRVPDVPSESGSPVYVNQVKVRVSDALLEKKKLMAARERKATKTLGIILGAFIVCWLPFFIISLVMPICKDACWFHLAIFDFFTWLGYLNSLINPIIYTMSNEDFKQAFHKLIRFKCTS
Consider `C[C@@H]1SC(c2cc3ccccc3cc2O)=N[C@H]1CO` (relative stereo), for which the pKi is < 5.00.

With `C[C@@H]1SC(c2ccco2)=N[C@H]1CO` (relative stereo), the pKi is < 5.00.

For `CNc1ccccc1C1=N[C@@H](CO)[C@H](C)S1` (relative stereo), the pKi is < 5.00.

Turning to `CCCCCCCCOc1ccc(C2=N[C@@H](CO)[C@H](C)S2)cc1` (relative stereo), the pKi was < 5.00.

For the compound `C[C@@H]1SC(c2ccsc2)=N[C@H]1CO` (relative stereo), the pKi was < 5.00.

For the next assay, the target named is 5-hydroxytryptamine receptor 2A (Homo sapiens, UniProt P28223). Briefly: Displacement of [3H]Ketanserin from 5-HT2A (unknown origin) receptor after 90 mins by microbeta scintillation counting analysis.
Sequence of 5-hydroxytryptamine receptor 2A (P28223 whole entry): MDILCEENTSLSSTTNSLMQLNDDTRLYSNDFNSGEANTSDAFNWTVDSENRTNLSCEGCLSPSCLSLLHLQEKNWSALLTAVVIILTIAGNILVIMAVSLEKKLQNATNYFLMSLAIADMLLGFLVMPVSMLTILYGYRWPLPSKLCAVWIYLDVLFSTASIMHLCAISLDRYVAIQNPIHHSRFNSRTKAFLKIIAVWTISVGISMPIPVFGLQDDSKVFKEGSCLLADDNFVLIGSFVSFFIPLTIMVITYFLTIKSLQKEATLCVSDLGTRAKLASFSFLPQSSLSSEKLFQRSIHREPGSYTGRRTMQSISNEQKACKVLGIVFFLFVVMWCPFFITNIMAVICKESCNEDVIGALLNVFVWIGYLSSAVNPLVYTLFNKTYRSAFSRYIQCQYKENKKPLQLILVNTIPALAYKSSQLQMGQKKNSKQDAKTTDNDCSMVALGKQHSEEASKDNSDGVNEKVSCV
Turning to `C[C@H]1SC(c2ccc(-c3ccccc3)cc2)=N[C@H]1Cc1c[nH]cn1` (relative stereo), the pKi is 6.51.

For `C[C@@H]1SC(c2ccc(-c3ccccc3)cc2)=N[C@H]1Cc1c[nH]cn1` (relative stereo), the pKi was 6.62.

Consider `C[C@@H]1SC(c2cc3ccccc3cc2O)=N[C@H]1CO` (relative stereo), for which the pKi was < 5.00.

On to `C[C@@H]1SC(c2ccco2)=N[C@H]1CO` (relative stereo), for which the pKi is < 5.00.

On to `CNc1ccccc1C1=N[C@@H](CO)[C@H](C)S1` (relative stereo), for which the pKi is < 5.00.

For the compound `CCCCCCCCOc1ccc(C2=N[C@@H](CO)[C@H](C)S2)cc1` (relative stereo), the pKi was 5.16.

For the compound `C[C@@H]1SC(c2ccsc2)=N[C@H]1CO` (relative stereo), the pKi was < 5.00.

Another assay addresses T2, 5-hydroxytryptamine receptor 1A (Homo sapiens, UniProt P08908).
T2 sequence (P08908 whole entry): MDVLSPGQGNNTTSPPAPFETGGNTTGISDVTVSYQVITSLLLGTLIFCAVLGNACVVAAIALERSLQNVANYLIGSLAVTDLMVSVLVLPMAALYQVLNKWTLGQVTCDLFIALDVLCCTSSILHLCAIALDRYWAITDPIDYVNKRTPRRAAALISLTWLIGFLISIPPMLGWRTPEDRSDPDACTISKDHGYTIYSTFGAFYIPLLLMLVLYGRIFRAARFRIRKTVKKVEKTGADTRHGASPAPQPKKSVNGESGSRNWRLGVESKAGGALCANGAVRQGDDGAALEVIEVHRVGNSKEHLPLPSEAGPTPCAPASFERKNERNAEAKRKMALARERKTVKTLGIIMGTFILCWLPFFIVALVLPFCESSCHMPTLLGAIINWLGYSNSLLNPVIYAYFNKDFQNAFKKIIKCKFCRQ
Briefly: Antagonist activity at 5-HT1A receptor (unknown origin) by Tango assay. It counts as functional.
As to `CCCCCCCCOc1ccc(C2=N[C@@H](CO)[C@H](C)S2)cc1` (relative stereo), the pIC50 (as a rule, the negative decadic logarithm of the IC50, by convention in mol/L) is < 5.00.

The target in a further assay is T3, 5-hydroxytryptamine receptor 2C (Homo sapiens, UniProt P28335).
T3 sequence (P28335 whole entry): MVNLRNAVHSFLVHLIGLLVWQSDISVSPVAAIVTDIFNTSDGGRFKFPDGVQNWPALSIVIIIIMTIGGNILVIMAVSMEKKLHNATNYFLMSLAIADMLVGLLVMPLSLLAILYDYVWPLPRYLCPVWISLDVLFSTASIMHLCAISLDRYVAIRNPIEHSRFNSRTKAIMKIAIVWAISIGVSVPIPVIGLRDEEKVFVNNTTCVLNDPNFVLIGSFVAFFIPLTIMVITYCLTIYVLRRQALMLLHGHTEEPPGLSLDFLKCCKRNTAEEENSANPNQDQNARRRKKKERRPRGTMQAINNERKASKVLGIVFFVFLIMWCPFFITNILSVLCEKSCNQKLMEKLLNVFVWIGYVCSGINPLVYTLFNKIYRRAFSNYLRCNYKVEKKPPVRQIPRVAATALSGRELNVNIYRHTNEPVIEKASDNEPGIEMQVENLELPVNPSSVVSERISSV
Briefly: Displacement of [3H]-Mesulergine from human 5-HT2C receptor expressed in HEKT cells after 90 mins by microbeta scintillation counting analysis. The assay is classed as cell-based.
With `C[C@H]1SC(c2ccccc2O)=N[C@@H]1CO` (racemic), the pKi was 5.66.

`C[C@H]1SC(c2ccc(-c3ccccc3)cc2)=N[C@H]1Cc1c[nH]cn1` (relative stereo) had a pKi of 5.64.

As to `C[C@@H]1SC(c2ccc(-c3ccccc3)cc2)=N[C@H]1Cc1c[nH]cn1` (relative stereo), the pKi was 5.85.

For the compound `C[C@@H]1SC(c2cc3ccccc3cc2O)=N[C@H]1CO` (relative stereo), the pKi is 5.62.

For the compound `C[C@@H]1SC(c2ccco2)=N[C@H]1CO` (relative stereo), the pKi was < 5.00.

In turn, `CNc1ccccc1C1=N[C@@H](CO)[C@H](C)S1` (relative stereo) gave a pKi of 5.72.

As for `CCCCCCCCOc1ccc(C2=N[C@@H](CO)[C@H](C)S2)cc1` (relative stereo), the pKi was 5.44.

As to `C[C@@H]1SC(c2ccsc2)=N[C@H]1CO` (relative stereo), the pKi was < 5.00.

The target in another assay is 5-hydroxytryptamine receptor 2B (Homo sapiens, UniProt P41595). The assay can be described thus: Displacement of [3H]-LSD from human 5-HT2B receptor expressed in HEK cells after 90 mins by microbeta scintillation counting analysis. The assay is classed as cell-based.
Sequence of 5-hydroxytryptamine receptor 2B (P41595 whole entry): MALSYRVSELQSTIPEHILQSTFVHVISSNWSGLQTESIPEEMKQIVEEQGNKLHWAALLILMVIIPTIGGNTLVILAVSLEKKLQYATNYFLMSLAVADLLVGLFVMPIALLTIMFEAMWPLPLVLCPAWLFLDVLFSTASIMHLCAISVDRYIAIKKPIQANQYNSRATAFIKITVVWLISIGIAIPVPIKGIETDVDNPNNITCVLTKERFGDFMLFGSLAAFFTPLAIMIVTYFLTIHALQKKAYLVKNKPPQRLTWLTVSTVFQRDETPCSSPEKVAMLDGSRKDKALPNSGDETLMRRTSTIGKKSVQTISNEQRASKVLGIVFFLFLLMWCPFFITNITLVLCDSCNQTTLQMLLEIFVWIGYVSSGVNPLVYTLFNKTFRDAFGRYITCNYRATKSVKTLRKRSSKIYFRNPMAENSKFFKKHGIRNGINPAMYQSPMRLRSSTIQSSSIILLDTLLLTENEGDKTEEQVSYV
Take `C[C@H]1SC(c2ccccc2O)=N[C@H]1CO`: the pKi is 6.40.

`C[C@H]1SC(c2ccccc2O)=N[C@@H]1CO` (racemic) had a pKi of 6.21.

Take `C[C@H]1SC(c2ccc(-c3ccccc3)cc2)=N[C@H]1Cc1c[nH]cn1` (relative stereo): the pKi was 5.85.

For the compound `C[C@@H]1SC(c2ccc(-c3ccccc3)cc2)=N[C@H]1Cc1c[nH]cn1` (relative stereo), the pKi was 5.96.

With `C[C@@H]1SC(c2cc3ccccc3cc2O)=N[C@H]1CO` (relative stereo), the pKi was 6.09.

For `C[C@@H]1SC(c2ccco2)=N[C@H]1CO` (relative stereo), the pKi was < 5.00.

For the compound `CNc1ccccc1C1=N[C@@H](CO)[C@H](C)S1` (relative stereo), the pKi is 5.92.

As for `CCCCCCCCOc1ccc(C2=N[C@@H](CO)[C@H](C)S2)cc1` (relative stereo), the pKi was < 5.00.

On to `C[C@@H]1SC(c2ccsc2)=N[C@H]1CO` (relative stereo), for which the pKi was 5.82.

The target in a further assay is 5-hydroxytryptamine receptor 7 (Homo sapiens, UniProt P34969). Briefly: Displacement of [3H]-LSD from human 5-HT7A receptor expressed in HEK cells after 90 mins by microbeta scintillation counting analysis. The assay is classed as cell-based.
Sequence of 5-hydroxytryptamine receptor 7 (P34969 whole entry): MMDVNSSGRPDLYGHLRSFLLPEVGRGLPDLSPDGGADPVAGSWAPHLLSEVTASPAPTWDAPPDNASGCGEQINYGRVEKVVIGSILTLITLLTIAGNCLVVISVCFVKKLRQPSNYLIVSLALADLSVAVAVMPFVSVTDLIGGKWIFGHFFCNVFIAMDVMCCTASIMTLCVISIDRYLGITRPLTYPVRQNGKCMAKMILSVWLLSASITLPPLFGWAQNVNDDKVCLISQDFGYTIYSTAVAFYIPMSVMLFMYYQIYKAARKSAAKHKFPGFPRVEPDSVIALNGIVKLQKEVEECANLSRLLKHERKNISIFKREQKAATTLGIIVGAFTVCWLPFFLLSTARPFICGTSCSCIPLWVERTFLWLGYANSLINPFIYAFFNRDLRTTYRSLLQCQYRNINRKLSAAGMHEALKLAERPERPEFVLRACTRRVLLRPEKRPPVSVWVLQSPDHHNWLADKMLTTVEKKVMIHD
Take `C[C@@H]1SC(c2cc3ccccc3cc2O)=N[C@H]1CO` (relative stereo): the pKi is < 5.00.

As to `C[C@@H]1SC(c2ccco2)=N[C@H]1CO` (relative stereo), the pKi is < 5.00.

With `CNc1ccccc1C1=N[C@@H](CO)[C@H](C)S1` (relative stereo), the pKi is < 5.00.

In the case of `CCCCCCCCOc1ccc(C2=N[C@@H](CO)[C@H](C)S2)cc1` (relative stereo), the pKi is < 5.00.

For the compound `C[C@@H]1SC(c2ccsc2)=N[C@H]1CO` (relative stereo), the pKi was < 5.00.

Another assay addresses 5-hydroxytryptamine receptor 5A (Homo sapiens, UniProt P47898). The assay can be described thus: Displacement of [3H]-LSD from human 5-HT5A receptor expressed in Flp-In CHO cells after 90 mins by microbeta scintillation counting analysis. It counts as cell-based.
In the case of `C[C@@H]1SC(c2cc3ccccc3cc2O)=N[C@H]1CO` (relative stereo), the pKi is < 5.00.

On to `C[C@@H]1SC(c2ccco2)=N[C@H]1CO` (relative stereo), for which the pKi was < 5.00.

In the case of `CNc1ccccc1C1=N[C@@H](CO)[C@H](C)S1` (relative stereo), the pKi was < 5.00.

In the case of `CCCCCCCCOc1ccc(C2=N[C@@H](CO)[C@H](C)S2)cc1` (relative stereo), the pKi is < 5.00.

In turn, `C[C@@H]1SC(c2ccsc2)=N[C@H]1CO` (relative stereo) had a pKi of 5.09.

Another assay has as its target 5-hydroxytryptamine receptor 1D (Homo sapiens, UniProt P28221). Briefly: Displacement of [3H]5-CT from human 5-HT1D receptor expressed in HEKT cells after 90 mins by microbeta scintillation counting analysis. The assay is classed as cell-based.
In the case of `C[C@@H]1SC(c2cc3ccccc3cc2O)=N[C@H]1CO` (relative stereo), the pKi is < 5.00.

As for `C[C@@H]1SC(c2ccco2)=N[C@H]1CO` (relative stereo), the pKi was < 5.00.

With `CNc1ccccc1C1=N[C@@H](CO)[C@H](C)S1` (relative stereo), the pKi was 5.07.

As to `CCCCCCCCOc1ccc(C2=N[C@@H](CO)[C@H](C)S2)cc1` (relative stereo), the pKi was < 5.00.

In turn, `C[C@@H]1SC(c2ccsc2)=N[C@H]1CO` (relative stereo) showed a pKi of 5.07.

The record behind these values is ChEMBL document CHEMBL4190286, “Modulating the Serotonin Receptor Spectrum of Pulicatin Natural Products” (J Nat Prod, 2017).
